Source: patent US4812465A, “Triazole derivatives for use as antimycotic agents” (CL Pharma Aktiengesellschaft, priority 1986, dated 1989)
≈ marks a conversion by molar mass, not a printed value.

Assays:
Assay in all cases: In vitro determination of minimum inhibitory concentration (MIC), serial dilution
Type in all cases: cell-based
Absidia ramosa = details: pH 6.0, 22° C., 14 days; for MIC: Lichtheimia ramosa, 336 h, pH 6, Absidia ramosa
Method: (§1) The antimycotic activities of the compounds were measured by in vitro determination of the minimum inhibitory concentration (MIC) for yeasts, molds and dermatophytes.
(§2) 6 dermatophytes, 2 yeasts and 4 molds were used for testing with fungi, as follows:
(§3) The minimum inhibitory concentration (MIC) was determined in serial dilution tests in test tubes. The volume of the liquid nutrient medium in each test tube was 4.5 ml.
(§4) The substances were dissolved in DMSO and diluted with sterile distilled water to 10 concentrations (100, 50, 25, 12.5, 6.25, 3.12, 1.56, 0.78, 0.39 and 0.19 μg/ml). 0.5 ml of each of these dilution steps was added to liquid nutrient medium. Thus, a constant concentration of solvent in all the nutrient media was ensured, irrespective of the active compound concentration.
(§5) A comparison solution which contained only the solvent in appropriate concentration was included when carrying out each of the tests.
(§6) The individual strains were maintained on Sabouraud/beerwort agar slants and, before they were used in a test, they underwent a passage on a modified Sabouraud liquid nutrient medium. The strains were then harvested, washed and converted into a suspension of McFaerland 3 in the case of yeasts and molds and of McFaerland 4-5 in the case of dermatophytes.
(§7) The amount of material inoculated (inoculum) was 100 μl/test tube (inoculated densities: yeasts about 10^3 /ml, molds about 10^4 /ml, dermatophytes about 10^4 /ml). The pH of the liquid nutrient medium was 6.0. After inoculation had taken place the fungi were incubated at 22° C. for 14 days.
(§8) The MIC was then determined. The concentration step at which growth was no longer visible on macroscopic inspection was used for the determination of the MIC. The comparison substance used was 1-(2-(2,4-dichlorophenyl)-2-(2,4-dichlorophenylmethoxy)ethyl)-1H-imidazole(compound A).

Aspergillus fumigatus = details: 20160 min, pH 6
Method: as §1, §2, §3, §4, §5, §6, §7, §8

Candida albicans = details: 336 h, pH 6, Candida albicans, pH 6.0, 22° C., 14 days, read-out: MIC C.alb
Method: as §1, §2, §3, §4, §5, §6, §7, §8

Candida tropicalis = details: 336 h, pH 6, Candida tropicalis, pH 6.0, 22° C., 14 days, read-out: MIC C.trop
Method: as §1, §2, §3, §4, §5, §6, §7, §8

Epidermophyton floccosum = details: pH 6.0, 22° C., 14 days; for MIC: 336 h, pH 6, Epidermophyton floccosum
Method: as §1, §2, §3, §4, §5, §6, §7, §8

Microsporum canis = details: pH 6.0, 22° C., 14 days; for MIC: 336 h, pH 6, Microsporum canis
Method: as §1, §2, §3, §4, §5, §6, §7, §8

Microsporum gypseum = details: Nannizzia gypsea, 336 h, pH 6, Microsporum gypseum; pH 6.0, 22° C., 14 days; read-out: MIC Mi.gyp
Method: as §1, §2, §3, §4, §5, §6, §7, §8

Mucor mucedo minus = details: Mucor mucedo, 336 h, pH 6, Mucor mucedo minus; pH 6.0, 22° C., 14 days
Method: as §1, §2, §3, §4, §5, §6, §7, §8

Mucor mucedo plus = details: Mucor mucedo, 336 h, pH 6, Mucor mucedo plus; pH 6.0, 22° C., 14 days
Method: as §1, §2, §3, §4, §5, §6, §7, §8

[1] = test system: Trichophyton mentagrophytes; details: pH 6.0, 22° C., 14 days; for MIC: 336 h, pH 6, Trichophyton mentagrophytes
Method: as §1, §2, §3, §4, §5, §6, §7, §8

Trichophyton rubrum = details: 336 h, pH 6, Trichophyton rubrum, pH 6.0, 22° C., 14 days
Method: as §1, §2, §3, §4, §5, §6, §7, §8

Trichophyton verrucosum = details: 336 h, pH 6, Trichophyton verrucosum, pH 6.0, 22° C., 14 days
Method: as §1, §2, §3, §4, §5, §6, §7, §8

Compound	MIC (Absidia ramosa)	MIC Asp.fu. (Aspergillus fumigatus)	MIC (Candida albicans)	MIC (Candida tropicalis)	MIC (Epidermophyton floccosum)	MIC (Microsporum canis)	MIC (Microsporum gypseum)	MIC (Mucor mucedo minus)	MIC (Mucor mucedo plus)	MIC [1]	MIC (Trichophyton rubrum)	MIC (Trichophyton verrucosum)	MIC Abs.ra. (Absidia ramosa; Absidia ramosa)	MIC Ep.flo (Epidermophyton floccosum)	MIC Mi.can (Microsporum canis)	MIC Tri.me. [1]
Clc1ccc(SCCCNC(Cn2ccnc2)c2ccc(Cl)cc2Cl)cc1 (centres unmarked) [Compound 2, 1-(2-(2,4-dichlorophenyl)-2-(3-(4-chlorophenylthio)propylamino)ethyl)-1H-imidazole]	3.12 µg/mL (≈ 7.08 µM)	3,12 μg/ml	3.12 µg/mL (≈ 7.08 µM)	1.56 µg/mL (≈ 3.54 µM)	6.25 µg/mL (≈ 14.2 µM)	1.56 µg/mL (≈ 3.54 µM)	3.12 µg/mL (≈ 7.08 µM)	25 µg/mL (≈ 56.7 µM)	12.5 µg/mL	12.5 µg/mL (≈ 28.4 µM)	0.19 µg/mL (≈ 0.431 µM)	0.39 µg/mL (≈ 0.885 µM)				
Clc1ccc(SCCNC(Cn2ccnc2)c2ccc(Cl)cc2Cl)cc1 (centres unmarked) [Compound 34]	6.25 µg/mL (≈ 14.6 µM)	6,25 μg/ml	3.12 µg/mL (≈ 7.31 µM)	3.12 µg/mL (≈ 7.31 µM)	0.78 µg/mL (≈ 1.83 µM)	0.78 µg/mL (≈ 1.83 µM)	0.78 µg/mL (≈ 1.83 µM)	3.12 µg/mL (≈ 7.31 µM)	3.12 µg/mL	0.78 µg/mL (≈ 1.83 µM)	0.78 µg/mL (≈ 1.83 µM)	0.78 µg/mL (≈ 1.83 µM)				
Clc1ccc(OCCCCNC(Cn2cncn2)c2ccc(Cl)cc2Cl)cc1 (centres unmarked) [Compound 126]	100 µg/mL (≈ 227 µM)	25,0 μg/ml	25 µg/mL (≈ 56.8 µM)	12.5 µg/mL (≈ 28.4 µM)	12.5 µg/mL (≈ 28.4 µM)	25 µg/mL (≈ 56.8 µM)	3.12 µg/mL (≈ 7.09 µM)	25 µg/mL (≈ 56.8 µM)	12.5 µg/mL	50 µg/mL (≈ 114 µM)	6.25 µg/mL (≈ 14.2 µM)	3.12 µg/mL (≈ 7.09 µM)				
Cc1ccc(OCCCNC(Cn2cncn2)c2ccc(Cl)cc2Cl)cc1 (centres unmarked) [Compound 52]	100 µg/mL (≈ 247 µM)	6,25 μg/ml	12.5 µg/mL (≈ 30.8 µM)	6.25 µg/mL (≈ 15.4 µM)	3.12 µg/mL (≈ 7.7 µM)	3.12 µg/mL (≈ 7.7 µM)	3.12 µg/mL (≈ 7.7 µM)	12.5 µg/mL (≈ 30.8 µM)	3.12 µg/mL	6.25 µg/mL (≈ 15.4 µM)	3.12 µg/mL (≈ 7.7 µM)	3.12 µg/mL (≈ 7.7 µM)				
Clc1ccc(SCCNC(Cn2cncn2)c2ccc(Cl)cc2Cl)cc1 (centres unmarked) [Compound 33]	25 µg/mL (≈ 58.4 µM)	25,0 μg/ml	12.5 µg/mL (≈ 29.2 µM)	6.25 µg/mL (≈ 14.6 µM)	3.12 µg/mL (≈ 7.29 µM)	6.25 µg/mL (≈ 14.6 µM)	6.25 µg/mL (≈ 14.6 µM)	3.12 µg/mL (≈ 7.29 µM)	6.25 µg/mL	25 µg/mL (≈ 58.4 µM)	3.12 µg/mL (≈ 7.29 µM)	3.12 µg/mL (≈ 7.29 µM)				
Clc1ccc(C(Cn2ccnc2)NCCCSc2ccccc2)c(Cl)c1 (centres unmarked) [Compound 90]	12.5 µg/mL (≈ 30.8 µM)	3,12 μg/ml	6.25 µg/mL (≈ 15.4 µM)	3.12 µg/mL (≈ 7.68 µM)	3.12 µg/mL (≈ 7.68 µM)	3.12 µg/mL (≈ 7.68 µM)	3.12 µg/mL (≈ 7.68 µM)	3.12 µg/mL (≈ 7.68 µM)	6.25 µg/mL	25 µg/mL (≈ 61.5 µM)	1.56 µg/mL (≈ 3.84 µM)	1.56 µg/mL (≈ 3.84 µM)				
Clc1ccc(C(Cn2cncn2)NCCSc2ccc(Br)cc2)c(Cl)c1 (centres unmarked) [Compound 36]	100 µg/mL (≈ 212 µM)	100 µg/mL (≈ 212 µM)	25 µg/mL (≈ 52.9 µM)	12.5 µg/mL (≈ 26.5 µM)	12.5 µg/mL (≈ 26.5 µM)	100 µg/mL (≈ 212 µM)	6.25 µg/mL (≈ 13.2 µM)	50 µg/mL (≈ 106 µM)	12.5 µg/mL	25 µg/mL (≈ 52.9 µM)	6.25 µg/mL (≈ 13.2 µM)	12.5 µg/mL (≈ 26.5 µM)				
Clc1ccc(C(Cn2ccnc2)NCCCSc2c(Cl)cccc2Cl)c(Cl)c1 (centres unmarked) [Compound 112]	12.5 µg/mL (≈ 26.3 µM)	12,5 μg/ml	6.25 µg/mL (≈ 13.2 µM)	6.25 µg/mL (≈ 13.2 µM)	3.12 µg/mL (≈ 6.56 µM)	12.5 µg/mL (≈ 26.3 µM)	3.12 µg/mL (≈ 6.56 µM)	12.5 µg/mL (≈ 26.3 µM)	6.25 µg/mL	3.12 µg/mL (≈ 6.56 µM)	3.12 µg/mL (≈ 6.56 µM)	3.12 µg/mL (≈ 6.56 µM)				
COc1ccc(OCCCNC(Cn2ccnc2)c2ccc(Cl)cc2Cl)cc1 (centres unmarked) [Compound 67]	100 µg/mL (≈ 238 µM)			50 µg/mL (≈ 119 µM)	100 µg/mL (≈ 238 µM)	50 µg/mL (≈ 119 µM)	25 µg/mL (≈ 59.5 µM)			100 µg/mL (≈ 238 µM)		6.25 µg/mL (≈ 14.9 µM)	50,0 μg/ml	50,0 μg/ml	25,0 μg/ml	50,0 μg/ml
